{
  "source": "patent US11629354B2",
  "about": "“Grain with increased nicotianamine” (The United States of America, as represented by the …, priority 2020, dated 2023)",
  "format_in_all_cases": "in vivo, chicken",
  "key": {"[1]": {"assay": "Intraamniotic administration: Fe and Zn concentration in blood serum and liver", "details": "relative to unchelated Fe (Fe) and non-injected groups", "description": "(§1) To generate extracts for administration, wheat flours (CE-OsNAS2, hereinafter “biofortified”; and NS, hereinafter “control”) were mixed in dH2O (50 g/L), filtered (600 μm) and centrifuged, and the resulting supernatant was dialyzed (MWCO 12-14 kDa, Medicell International Ltd., London, UK) exhaustively against dH2O (48 hrs). The dialysate was lyophilized, and the resulting powder dissolved in 18MΩ H2O (0.05 g/mL) forming the white wheat flour extracts for intra-amniotic administration. Iron solutions were prepared by combining an Fe standard (1000 μg/mL, 2% HCl, High-Purity Standards, Charleston, S.C., USA) with either 18MΩ H2O (Fe), or 1.6 mM NA (Toronto Research Chemicals Inc., Toronto, Canada) dissolved in 18MΩ H2O (Fe-NA). The Fe-EDTA solution was achieved by combining ferric nitrate (Fe(NO3)3 9H2O, Sigma, St. Louis, Mo., USA) with hydroxyethyl ethylenediamine triacetic acid (H3HEDTA, Sigma, St. Louis, Mo., USA) dissolved in sodium hydroxide (NaOH, Sigma, St. Louis, Mo., USA) to represent an anionic chelate of dissolved NaFeEDTA with final Fe concentration of 77 μM.\nCornish-cross fertile broiler eggs (n=70) were obtained from a commercial hatchery (Moyer's chicks, Quakertown, Pa., USA) and incubated until hatching. All methods were performed in accordance with the relevant guidelines and regulations. […]"}, "intestinal villi": {"system": "intestinal villi", "assay": "Intraamniotic administration: intestinal functionality (goblet cell number, villi length and width)", "description": "as §1\nFor intraamniotic administration, eggs (n=40) containing viable embryos were weighed and randomly assigned to seven groups (n≥5) based on weight distribution. At day 17 of incubation, extracts/Fe solutions (1 mL) were injected into the amniotic fluid via a 21-gauge needle for the seven treatment groups as follows: (1) non-injected (NI); (2) 18MΩ H2O (H2O); (3) Fe solution (Fe); (4) Fe-EDTA solution (Fe-EDTA); (5) Fe-NA solution (Fe-NA); (6) Control white flour extract (C WF); (7) Biofortified white flour extract (B WF) and eggs were subsequently incubated for four days until hatch. Chicks were euthanized by CO2 exposure after hatching and all tissues were collected.\nIntestinal functionality and short-chain fatty acid (SCFA) analysis. […] Samples were quantified via GC-MS using a TRACE™ 1310 gas chromatograph (Thermo Fisher Scientific, Waltham, Mass., USA) and a TraceGOLD™ TG-WaxMS A column (Thermo Fisher Scientific, Waltham, Mass., USA)."}, "[2]": {"system": "Lactobacillus, Bifidobacterium, Escherichia, and Clostridium", "assay": "Intraamniotic administration: cecal microbial population analysis", "description": "To generate extracts for administration, wheat flours (CE-OsNAS2, hereinafter “biofortified”; and NS, hereinafter “control”) were mixed in dH2O (50 g/L), filtered (600 μm) and centrifuged, and the resulting supernatant was dialyzed (MWCO 12-14 kDa, Medicell International Ltd., London, UK) exhaustively against dH2O (48 hrs). The dialysate was lyophilized, and the resulting powder dissolved in 18MΩ H2O (0.05 g/mL) forming the white wheat flour extracts for intra-amniotic administration. Iron solutions were prepared by combining an Fe standard (1000 μg/mL, 2% HCl, High-Purity Standards, Charleston, S.C., USA) with either 18MΩ H2O (Fe), or 1.6 mM NA (Toronto Research Chemicals Inc., Toronto, Canada) dissolved in 18MΩ H2O (Fe-NA). […]\nMicrobial population analysis. Lactobacillus, Bifidobacterium, Escherichia, and Clostridium density in intraamniotic administration treatment groups was determined as follows: in brief, cecal contents were homogenized with phosphate-buffered saline (PBS, 9 ml), centrifuged and the pellet resuspended in ethylenediaminetetraacetic acid (EDTA, 50 mM) and treated (37° C., 45 min) with lysozyme (10 mg/mL, Sigma Aldrich CO., St. Louis, Mo., USA). […]"}, "[3]": {"details": "relative to other treatment groups"}},
  "data": [
    {"substance": "Fe-EDTA", "values": [
      {"measurement": "Blood serum Fe concentration", "setting": "[1]", "value": "significantly elevated"},
      {"measurement": "Intestinal villi width", "setting": "intestinal villi; relative to all treatment groups", "value": "increased significantly"},
      {"measurement": "Goblet cell number in intestinal villi", "setting": "intestinal villi; [3]", "value": "decreased significantly"},
      {"measurement": "Intestinal villi length", "setting": "intestinal villi; [3]", "value": "increased significantly"},
      {"measurement": "abundance of Clostridium in cecum", "setting": "[2]; relative to C-WF", "value": "significantly increased"},
      {"measurement": "abundance of Escherichia in cecum", "setting": "[2]; relative to Fe-NA", "value": "significantly increased"}
    ]}
  ]
}
